{"source": "patent US6894034B1", "about": "“Sebum production inhibitors” (Maruha Corporation, priority 1999, dated 2005)", "test_system": "male hamster auricular skin tissue sections containing sebaceous glands", "assay": "Sebum production inhibitory effect on hamster auricular skin tissue sections (radiolabeled acetate incorporation, method of Hall et al.)", "format": "cell-based", "settings": "cultured 3 hours in Krebs-Ringer phosphate buffer, vs left auricula control", "protocol": "Compounds of the present invention (Compound Nos. 1-10) were evaluated for sebum production inhibitory effect on hamster auricular skin tissue sections containing sebaceous glands.\nThe method of Hall et al. (Hall, D. W. R., Van den Hoven, W. E., Noordzij-Kamermans, N. J., Jaitly, K. D., Arch. Dermatol. Res., 275, 1 (1983)) was followed. Namely, male hamster auricular skin tissue sections (3 mm in diameter) containing sebaceous glands were cultured for 3 hours in Krebs-Ringer phosphate buffer containing radioactively labeled sodium acetate, and then tissues were hydrolyzed and extracted with hexane. The radioactively labeled fat levels in hexane were measured in a liquid scintillation counter to determine fat production inhibition levels in sebaceous glands. Skin tissues isolated from the right auricula were cultured in Krebs-Ringer phosphate buffer containing 0.01% or 0.05% of compounds of the present invention (Compound Nos. 1-10) (compound systems), while skin tissues from the left auricula of the same hamster were cultured in Krebs-Ringer phosphate buffer containing no compounds of the present invention (control system). The sebum production inhibition percentage was calculated by the equation below from the test data obtained. Sebum production inhibition (%)=[(Sebum production level in control system)−(Sebum production level in each compound system)]/(Sebum production level in control system)×100", "key": {"[1]": {"settings": "Concentration of compound in the medium 0.01%"}, "[2]": {"settings": "Concentration of compound in the medium 0.05%"}}, "data": [{"compound": "CC(=O)N[C@@H]1[C@@H](O[C@@H]2O[C@H](C(=O)O)[C@@H](O[C@@H]3O[C@H](CO)[C@@H](O)[C@H](O[C@@H]4O[C@H](C(=O)O)[C@@H](O[C@@H]5O[C@H](CO)[C@@H](O)[C@H](O[C@@H]6O[C@H](C(=O)O)[C@@H](O[C@@H]7O[C@H](CO)[C@@H](O)[C@H](O[C@@H]8OC(C(=O)O)=C[C@H](O)[C@H]8O)[C@H]7NC(C)=O)[C@H](O)[C@H]6O)[C@H]5NC(C)=O)[C@H](O)[C@H]4O)[C@H]3NC(C)=O)[C@H](O)[C@H]2O)[C@H](O)[C@@H](CO)O[C@H]1O", "note": "[compound 3, 4-deoxy-α-L-threo-hexa-4-enepyranuronosyl-(1→3)-O-2-acetamide-2-deoxy-β-D-glucopyranosyl-(1→4)-3-O-β-D-glucopyranuronosyl-(1→3)-O-2-acetamide-2-deoxy-β-D-glucopyranosyl-(1→4)-3-O-β-D-glucopyranuronosyl-(1→3)-O-2-acetamide-2-deoxy-β-D-glucopyranosyl-(1→4)-3-O-β-D-glucopyranuronosyl-(1→3)-O-2-acetamide-2-deoxy-β-D-glucopyranose]", "values": [{"measurement": "Sebum production inhibition (%)", "setting": "[1]", "value": 48.5, "unit": "%"}, {"measurement": "Sebum production inhibition (%)", "setting": "[2]", "value": 47.7, "unit": "%"}]}, {"compound": "CC(=O)N[C@H]1[C@H](O[C@@H]([C@H](O)[C@@H](O)CO)[C@H](O)C(=O)O)O[C@H](CO)[C@@H](O)[C@@H]1O[C@@H]1O[C@H](C(=O)O)[C@@H](O[C@@H]2O[C@H](CO)[C@@H](O)[C@H](O[C@@H]3OC(C(=O)O)=C[C@H](O)[C@H]3O)[C@H]2NC(C)=O)[C@H](O)[C@H]1O", "note": "[compound 10, 4-deoxy-α-L-threo-hexa-4-enepyranuronosyl-(1→3)-O-2-acetamide-2-deoxy-β-D-glucopyranosyl-(1→4)-3-O-β-D-glucopyranuronosyl-(1→3)-O-2-acetamide-2-deoxy-β-D-glucopyranosyl-(1→4)-3-O-β-D-glucopyranuronitol]", "values": [{"measurement": "Sebum production inhibition (%)", "setting": "[1]", "value": 39.8, "unit": "%"}, {"measurement": "Sebum production inhibition (%)", "setting": "[2]", "value": 55.1, "unit": "%"}]}, {"compound": "CC(=O)N[C@H]1[C@H](O[C@H]2[C@H](O)[C@@H](O)[C@H](O)O[C@@H]2C(=O)O)O[C@H](CO)[C@@H](O)[C@@H]1O[C@@H]1O[C@H](C(=O)O)[C@@H](O[C@@H]2O[C@H](CO)[C@@H](O)[C@H](O[C@@H]3OC(C(=O)O)=C[C@H](O)[C@H]3O)[C@H]2NC(C)=O)[C@H](O)[C@H]1O", "note": "[compound 8, 4-deoxy-α-L-threo-hexa-4-enepyranuronosyl-(1-3)-O-2-acetamide-2-deoxy-β-D-glucopyranosyl-(1-4)-3-O-β-D-glucopyranuronosyl-(13)-O-2-acetamide-2-deoxy-β-D-glucopyranosyl-(1→4)-3-O-β-D-glucopyranuronic acid]", "values": [{"measurement": "Sebum production inhibition (%)", "setting": "[1]", "value": 30.7, "unit": "%"}, {"measurement": "Sebum production inhibition (%)", "setting": "[2]", "value": 56.6, "unit": "%"}]}, {"compound": "CC(=O)N[C@@H]1[C@@H](O[C@@H]2O[C@H](C(=O)O)[C@@H](O[C@@H]3O[C@H](CO)[C@@H](O)[C@H](O[C@@H]4OC(C(=O)O)=C[C@H](O)[C@H]4O)[C@H]3NC(C)=O)[C@H](O)[C@H]2O)[C@H](O)[C@@H](CO)O[C@H]1O", "note": "[compound 1, 4-deoxy-α-L-threo-hexa-4-enepyranuronosyl-(1→3)-O-2-acetamide-2-deoxy-β-D-glucopyranosyl-(1→4)-3-O-β-D-glucopyranuronosyl-(1→3)-O-2-acetamide-2-deoxy-β-D-glucopyranose]", "values": [{"measurement": "Sebum production inhibition (%)", "setting": "[1]", "value": 15.7, "unit": "%"}, {"measurement": "Sebum production inhibition (%)", "setting": "[2]", "value": 17.8, "unit": "%"}]}, {"compound": "CC(=O)N[C@H]1[C@H](O[C@@H]([C@H](O)[C@@H](O)CO)[C@H](O)C(=O)O)O[C@H](CO)[C@@H](O)[C@@H]1O[C@@H]1OC(C(=O)O)=C[C@H](O)[C@H]1O", "note": "[compound 9, 4-deoxy-α-L-threo-hexa-4-enepyranuronosyl-(1→3)-O-2-acetamide-2-deoxy-β-D-glucopyranosyl-(1→4)-3-O-β-D-glucopyranuronitol]", "values": [{"measurement": "Sebum production inhibition (%)", "setting": "[1]", "value": 13.9, "unit": "%"}, {"measurement": "Sebum production inhibition (%)", "setting": "[2]", "value": 20.0, "unit": "%"}]}, {"compound": "CC(=O)N[C@H]1[C@H](O[C@H]2[C@H](O)[C@@H](O)[C@H](O[C@@H]([C@H](O)[C@H](O)CO)[C@H](CO)NC(C)=O)O[C@@H]2C(=O)O)O[C@H](CO)[C@@H](O)[C@@H]1O[C@@H]1O[C@H](C(=O)O)[C@@H](O[C@@H]2O[C@H](CO)[C@@H](O)[C@H](O[C@@H]3OC(C(=O)O)=C[C@H](O)[C@H]3O)[C@H]2NC(C)=O)[C@H](O)[C@H]1O", "note": "[compound 6, 4-deoxy-α-L-threo-hexa-4-enepyranuronosyl-(1→3)-O-2-acetamide-2-deoxy-β-D-glucopyranosyl-(1→4)-3-O-β-D-glucopyranuronosyl-(13)-O-2-acetamide-2-deoxy-β-D-glucopyranosyl-(1→4)-3-O-β-D-glucopyranuronosyl-(1→3)-O-2-acetamide-2-deoxy-β-D-glucopyranitol]", "values": [{"measurement": "Sebum production inhibition (%)", "setting": "[1]", "value": 30.8, "unit": "%"}, {"measurement": "Sebum production inhibition (%)", "setting": "[2]", "value": 55.7, "unit": "%"}]}, {"compound": "CC(=O)N[C@H]1[C@H](O[C@H]2[C@H](O)[C@@H](O)[C@H](O)O[C@@H]2C(=O)O)O[C@H](CO)[C@@H](O)[C@@H]1O[C@@H]1OC(C(=O)O)=C[C@H](O)[C@H]1O", "note": "[compound 7, 4-deoxy-α-L-threo-hexa-4-enepyranuronosyl-(1-3)-O-2-acetamide-2-deoxy-β-D-glucopyranosyl-(1→4)-3-O-β-D-glucopyranuronic acid]", "values": [{"measurement": "Sebum production inhibition (%)", "setting": "[1]", "value": 14.2, "unit": "%"}, {"measurement": "Sebum production inhibition (%)", "setting": "[2]", "value": 15.9, "unit": "%"}]}, {"compound": "CC(=O)N[C@@H]1[C@@H](O[C@@H]2O[C@H](C(=O)O)[C@@H](O[C@@H]3O[C@H](CO)[C@@H](O)[C@H](O[C@@H]4O[C@H](C(=O)O)[C@@H](O[C@@H]5O[C@H](CO)[C@@H](O)[C@H](O[C@@H]6O[C@H](C(=O)O)[C@@H](O[C@@H]7O[C@H](CO)[C@@H](O)[C@H](O[C@@H]8O[C@H](C(=O)O)[C@@H](O[C@@H]9O[C@H](CO)[C@@H](O)[C@H](O[C@@H]%10OC(C(=O)O)=C[C@H](O)[C@H]%10O)[C@H]9NC(C)=O)[C@H](O)[C@H]8O)[C@H]7NC(C)=O)[C@H](O)[C@H]6O)[C@H]5NC(C)=O)[C@H](O)[C@H]4O)[C@H]3NC(C)=O)[C@H](O)[C@H]2O)[C@H](O)[C@@H](CO)O[C@H]1O", "note": "[compound 4]", "values": [{"measurement": "Sebum production inhibition (%)", "setting": "[1]", "value": 53.4, "unit": "%"}, {"measurement": "Sebum production inhibition (%)", "setting": "[2]", "value": 51.0, "unit": "%"}]}, {"compound": "CC(=O)N[C@H]1[C@H](O[C@H]2[C@H](O)[C@@H](O)[C@H](O[C@@H]([C@H](O)[C@H](O)CO)[C@H](CO)NC(C)=O)O[C@@H]2C(=O)O)O[C@H](CO)[C@@H](O)[C@@H]1O[C@@H]1OC(C(=O)O)=C[C@H](O)[C@H]1O", "note": "[compound 5, 4-deoxy-α-L-threo-hexa-4-enepyranuronosyl-(1→3)-O-2-acetamide-2-deoxy-β-D-glucopyranosyl-(1→4)-3-O-β-D-glucopyranuronosyl-(1→3)-O-2-acetamide-2-deoxy-β-D-glucopyranitol]", "values": [{"measurement": "Sebum production inhibition (%)", "setting": "[1]", "value": 16.2, "unit": "%"}, {"measurement": "Sebum production inhibition (%)", "setting": "[2]", "value": 18.1, "unit": "%"}]}, {"compound": "CC(=O)N[C@@H]1[C@@H](O[C@@H]2O[C@H](C(=O)O)[C@@H](O[C@@H]3O[C@H](CO)[C@@H](O)[C@H](O[C@@H]4O[C@H](C(=O)O)[C@@H](O[C@@H]5O[C@H](CO)[C@@H](O)[C@H](O[C@@H]6OC(C(=O)O)=C[C@H](O)[C@H]6O)[C@H]5NC(C)=O)[C@H](O)[C@H]4O)[C@H]3NC(C)=O)[C@H](O)[C@H]2O)[C@H](O)[C@@H](CO)O[C@H]1O", "note": "[compound 2, 4-deoxy-α-L-threo-hexa-4-enepyranuronosyl-(1→3)-O-2-acetamide-2-deoxy-β-D-glucopyranosyl-(1→4)-3-O-β-D-glucopyranuronosyl-(1→3)-O-2-acetamide-2-deoxy-β-D-glucopyranosyl-(1→4)-3-O-β-D-glucopyranuronosyl-(1→3)-O-2-acetamide-2-deoxy-β-D-glucopyranose]", "values": [{"measurement": "Sebum production inhibition (%)", "setting": "[1]", "value": 28.6, "unit": "%"}, {"measurement": "Sebum production inhibition (%)", "setting": "[2]", "value": 50.1, "unit": "%"}]}]}
